Source: PubChem BioAssay AID2060483 (Molecular Pharmacology Branch, DTP, NCI, 2025)
Blank lines part the entries; values can stand above or below the compound they belong to.

System: K24384-001-R-PDC complex spheroids, viability
Assay: Anticancer human tumor K24384-001-R-PDC patient-derived pancreatic adenocarcinoma cell line growth inhibition [GQUAD]
Conditions: for IC50: curve of first compound; for viability, T/C: stronger effect = lower value
Outline: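 Tumor cells were grown as complex spheroids with HUVEC endothelial cells and mesenchymal stem cells as stroma. G-quadruplex stabilizers were combined with targeted agents over half-log dilutions from near the clinical Cmax, or from 10 microM.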

[1] = second compound 0.0316 µM, first compound 0.000999 µM
[2] = second compound 0.0316 µM, first compound 0.00316 µM
[3] = second compound 0.0316 µM, first compound 0.00999 µM
[4] = second compound 0.0316 µM, first compound 0.0316 µM
[5] = second compound 0.0316 µM, first compound 0.0999 µM
[6] = second compound 0.0316 µM, first compound 0.316 µM
[7] = second compound 0.1 µM, first compound 0.000999 µM
[8] = second compound 0.1 µM, first compound 0.00316 µM
[9] = second compound 0.1 µM, first compound 0.00999 µM
[10] = second compound 0.1 µM, first compound 0.0316 µM
[11] = second compound 0.1 µM, first compound 0.0999 µM
[12] = second compound 0.1 µM, first compound 0.316 µM
[13] = second compound 0.316 µM, first compound 0.000999 µM
[14] = second compound 0.316 µM, first compound 0.00316 µM
[15] = second compound 0.316 µM, first compound 0.00999 µM
[16] = second compound 0.316 µM, first compound 0.0316 µM
[17] = second compound 0.316 µM, first compound 0.0999 µM
[18] = second compound 0.316 µM, first compound 0.316 µM
[19] = second compound 1 µM, first compound 0.000999 µM
[20] = second compound 1 µM, first compound 0.00316 µM
[21] = second compound 1 µM, first compound 0.00999 µM
[22] = second compound 1 µM, first compound 0.0316 µM
[23] = second compound 1 µM, first compound 0.0999 µM
[24] = second compound 1 µM, first compound 0.316 µM
[25] = second compound 3.16 µM, first compound 0.000999 µM
[26] = second compound 3.16 µM, first compound 0.00316 µM
[27] = second compound 3.16 µM, first compound 0.00999 µM
[28] = second compound 3.16 µM, first compound 0.0316 µM
[29] = second compound 3.16 µM, first compound 0.0999 µM
[30] = second compound 3.16 µM, first compound 0.316 µM
[31] = second compound 10 µM, first compound 0.000999 µM
[32] = second compound 10 µM, first compound 0.00316 µM
[33] = second compound 10 µM, first compound 0.00999 µM
[34] = second compound 10 µM, first compound 0.0316 µM
[35] = second compound 10 µM, first compound 0.0999 µM
[36] = second compound 10 µM, first compound 0.316 µM
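Further: spheroids exposed to compounds for seven days.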

IC50 (second compound 0.0316 µM): 118 nM
IC50 (second compound 0.1 µM): 79.4 nM
IC50 (second compound 0.316 µM): 39.5 nM
IC50 (second compound 1 µM): < 0.999 nM
IC50 (second compound 3.16 µM): < 0.999 nM
IC50 (second compound 10 µM): < 0.999 nM
SMILES: Cc1[nH]c2ccccc2c1CCNCc1ccc(/C=C/C(=O)NO)cc1 + Cc1cnc(CNC(=O)c2c(=O)c3ccc(N4CCCN(C)CC4)nc3n3c2sc2ccccc23)cn1
viability, T/C [1]: 83.9%
viability, T/C [2]: 75.8%
viability, T/C [3]: 109%
viability, T/C [4]: 82.9%
viability, T/C [5]: 57.4%
viability, T/C [6]: 6.49%
viability, T/C [7]: 65.4%
viability, T/C [8]: 81.2%
viability, T/C [9]: 74.7%
viability, T/C [10]: 57%
viability, T/C [11]: 48.9%
viability, T/C [12]: 5.15%
viability, T/C [13]: 45.5%
viability, T/C [14]: 54.4%
viability, T/C [15]: 63.1%
viability, T/C [16]: 44.8%
viability, T/C [17]: 45.6%
viability, T/C [18]: 1.86%
viability, T/C [19]: 41.3%
viability, T/C [20]: 41.8%
viability, T/C [21]: 37.3%
viability, T/C [22]: 37.3%
viability, T/C [23]: 28.2%
viability, T/C [24]: 0.15%
viability, T/C [25]: 33.8%
viability, T/C [26]: 33.3%
viability, T/C [27]: 35.4%
viability, T/C [28]: 34.6%
viability, T/C [29]: 13.5%
viability, T/C [30]: 0.12%
viability, T/C [31]: 0.27%
viability, T/C [32]: 0.26%
viability, T/C [33]: 0.28%
viability, T/C [34]: 0.32%
viability, T/C [35]: 0.26%
viability, T/C [36]: 0.21%

SMILES: Cn1ncnc1[C@H]1c2n[nH]c(=O)c3cc(F)cc(c23)N[C@@H]1c1ccc(F)cc1 + CN(C)c1ccc(Nc2c3ccc(NC(=O)CCN4CCCC4)cc3nc3cc(NC(=O)CCN4CCCC4)ccc23)cc1
IC50 (second compound 0.0316 µM): > 316 nM
IC50 (second compound 0.1 µM): > 316 nM
IC50 (second compound 0.316 µM): > 316 nM
IC50 (second compound 1 µM): > 316 nM
IC50 (second compound 3.16 µM): > 316 nM
IC50 (second compound 10 µM): > 316 nM
viability, T/C [1]: 101%
viability, T/C [2]: 82.2%
viability, T/C [3]: 108%
viability, T/C [4]: 81.4%
viability, T/C [5]: 80.9%
viability, T/C [6]: 86.1%
viability, T/C [7]: 82.9%
viability, T/C [8]: 125%
viability, T/C [9]: 92.2%
viability, T/C [10]: 81.2%
viability, T/C [11]: 107%
viability, T/C [12]: 93%
viability, T/C [13]: 85.1%
viability, T/C [14]: 89.5%
viability, T/C [15]: 105%
viability, T/C [16]: 70%
viability, T/C [17]: 79.7%
viability, T/C [18]: 77.3%
viability, T/C [19]: 90.4%
viability, T/C [20]: 91.2%
viability, T/C [21]: 88%
viability, T/C [22]: 87.1%
viability, T/C [23]: 100%
viability, T/C [24]: 69.4%
viability, T/C [25]: 101%
viability, T/C [26]: 85.7%
viability, T/C [27]: 77.8%
viability, T/C [28]: 92.3%
viability, T/C [29]: 91.7%
viability, T/C [30]: 65.5%
viability, T/C [31]: 88.2%
viability, T/C [32]: 75.1%
viability, T/C [33]: 82.9%
viability, T/C [34]: 118%
viability, T/C [35]: 110%
viability, T/C [36]: 54.8%
